According to patent US20240374613A1, “BIOACTIVE MOLECULES FOR USE IN TREATING INSULIN RESISTANCE AND/OR RESTORING GLUCOSE HOMEOSTASIS” (PALTECH, priority 2021, published 2024):

What was measured:
[1] = Method: (§1) The method was evaluated on 15 miniature pigs aged 5 years old (INRAE, UEPR, Saint-Gilles, France) and rendered insulin resistant after 3-4 months high fat high sucrose dict ingestion in excess according to already published data (Malbert et al., 2017b). The diet supplied 4024 kcal per kg of feed and was presented twice daily so that the animals could eat up to 150% of the recommended caloric intake (288 kcal/kg BW^0.75).
(§2) Once obese and insulin resistant, the animals were distributed into three groups of equal size (n=5 animals). One group served as control and was submitted only to a dummy implantation procedure including the initial GLP-1r PET imaging sequence using [68Ga]Ga-DO3A-VS-Cys40-Exendin-4. The second group was implanted during a laparoscopic procedure with a silicon catheter (2 mm OD) with its tip located at the portal sensor close to the minimum GLP-1r expression area according to the procedure described in 3.3. The terminal part of the catheter was bend at 90° to enter the periportal area. The catheter was secured at the entrance of the periportal cavity using a dacron surgical mesh (Biomesh P1, Cousin Bioserv Paris) glued to the silicon rubber prior to the implantation. During the implantation, the surgical mesh was glued to the outer layer of the portal vein using a surgical glue dispenser Glubran 2 and Glutack Cousin Bioserv Paris). The opposite tip of the catheter exited between the shoulder of the animal and was connected to an elastomeric pump. The pump (Easypump, II, BBraun) delivered 2 mL per hour of a solution of dihydrotestosterone (Sigma, Paris) in sterile water/DMSO (100:5 V/V) so that 10 mg of dihydrotestosterone was infused daily. The amount of the active molecule was irrespective of the body weight (BW). The pump was located in a lateral pocket of a jacket Whose size was adjusted for obese Yucantan minipigs (Lomir, Canada) and wore by the animal for the duration of the experiment. The third group was implanted during a laparoscopic procedure with an implant delivering 100 μg of dihydrostestoterone daily (Belma Technologies, Belgium) irrespective of the weight of the animal. The implant was inserted in the periportal area and the insertion hole achieved on the mesenteric layer for insertion was closed by a patch of surgical mesh glued directly on the meso using a procedure similar that described above. The anesthesia and surgical approach used for laparoscopy were identical those already described by Malbert et al. (Malbert et al., 2017b).
The protocol was described in FIG. 5 and consisted of two periods; one during which an obese insulin resistant status is achieved followed by a one-month post-surgery period during which DHT was slowly release according to the method of delivery described above. For control and implant groups only, the experimental period was also extended for an additional month to evaluate the capacity of the method to achieve a sustained effect on glucose metabolism. This extended period was not achievable on catheter implanted animals due to ethical constraints. A one-week recovery period is inserted in the protocol after the initial PET GLP-1r scan and after the surgery. The data acquired during these periods were discarded from further analysis.
Distribution of GLP-1r along the portal vein and within the abdominal organs was obtained during an initial PET scan after the administration of 25 to 40 MBq [68Ga]Ga-DO3A-VS-Cys40-Exendin-4 according to the above section 3 of the examples. The portal area of low GLP-1r expression was identified and used for insertion of either the catheter tip or the DHT implant according to the above section 3.3 relating to laparoscopic access. The anesthesia and overall procedure for imaging is identical that described by Malbert et al (Malbert et al., 2020b). The same PET scan procedure was repeated one month after the surgical procedure allowing to compare between groups and within subjects of the same group the changes in GLP-1r distribution.

[2] = DHT infusion 10 mg/24 H, mean ± SD, N=5
Method: as §1, §2
The protocol was described in FIG. 5 and consisted of two periods; one during which an obese insulin resistant status is achieved followed by a one-month post-surgery period during which DHT was slowly release according to the method of delivery described above. […]

GLP-1r = conditions: DHT infusion 10 mg daily, one month after surgery
Method: as §1
Once obese and insulin resistant, the animals were distributed into three groups of equal size (n=5 animals). One group served as control and was submitted only to a dummy implantation procedure including the initial GLP-1r PET imaging sequence using [68Ga]Ga-DO3A-VS-Cys40-Exendin-4. The second group was implanted during a laparoscopic procedure with a silicon catheter (2 mm OD) with its tip located at the portal sensor close to the minimum GLP-1r expression area according to the procedure described in 3.3. The terminal part of the catheter was bend at 90° to enter the periportal area. The catheter was secured at the entrance of the periportal cavity using a dacron surgical mesh (Biomesh P1, Cousin Bioserv Paris) glued to the silicon rubber prior to the implantation. During the implantation, the surgical mesh was glued to the outer layer of the portal vein using a surgical glue dispenser Glubran 2 and Glutack Cousin Bioserv Paris). […]

muscle protein synthesis = conditions: effect in muscle protein synthesis; in the form of gel applied cutaneous; cited from earlier work
[3] = DHT infusion 10 mg/24 H, periportal catheter, first 30 days after surgery, mean ± SD, N=5
[4] = DHT infusion 10 mg/24 H, 30 days after the implantation surgery, mean ± SD, N=5
[5] = periportal catheter, first 30 days after surgery
[6] = 30 days after the implantation surgery

Compound: C[C@]12CCC(=O)C[C@@H]1CC[C@@H]1[C@@H]2CC[C@]2(C)[C@@H](O)CC[C@@H]12 [DHT infusion, dihydrotestosterone]
- Abdominal fat [1, 3]: 38.1 ± 0.7!^ % of BW
- Fat [1, 3]: 36.8 ± 0.5 % of BW
- Liver to spleen ratio [1, 3]: 1.1 ± 0.02
- Mean arterial pressure [1, 3]: 79 ± 3.1 mmHg
- Muscle [1, 3]: 6.5 ± 1.0 % of BW
- Pulse rate [1, 3]: 104 ± 8.7 min⁻¹
- Systolic blood pressure [1, 3]: 55 ± 2.1 mmHg
- Clamp plasma insulin [1, 4]: 501 ± 14.1 μU/mL
- Fasting plasma glucose [1, 4]: 4.2 ± 0.23 mmol/L
- Fasting plasma insulin [1, 4]: 2.1 ± 0.21 μU/mL
- Mean plasma glucose at clamp plateau [1, 4]: 4.2 ± 0.36 mmol/L
- Insulin sensitivity ([1]; DHT infusion 10 mg/24 H, euglycemic hyperinsulinemic clamp plateau, 30 days after the implantation surgery, mean ± SD, N=5): 6.8 ± 0.20 dL/kg · min/μMU/mL*1E−3
- Body weight [2, 5]: 80.8 ± 2.0 kg
- Daily ingestion [2, 5]: 8.6 ± 0.03 g/kg · day
- Basal metabolic rate [2, 6]: 0.0079 ± 0.0007 kcal/min/kg
- Fasting glucose oxidation rate [2, 6]: 1.8 ± 0.10 mg/min · kg
- Portal GLP-1r binding potential/volume of distribution compared to control (GLP-1r): more than doubled
- Non portal (pancreatic) GLP-1r binding (GLP-1r; ns vs control): 4.8±0.41

Compound: C[C@]12CCC(=O)C[C@@H]1CC[C@@H]1[C@@H]2CC[C@]2(C)[C@@H](O)CC[C@@H]12 [DHT, dihydrotestosterone]
- Circulating insulin as fraction of the insulinemia measured in control group ([1]; DHT treated animals (both groups), fasting, 30 days after surgery): 1/3
- Whole-body insulin sensitivity change compared to control ([1]; euglycemic hyperinsulinemic clamp, irrespective of the DHT group): one third increase
- ED50 (muscle protein synthesis): 20 mg daily
